How the values were obtained:
β1-AR = molecular target: T1, β1-AR (Homo sapiens, UniProt P08588); experiment: competition binding assay, membranes with recombinant β1-AR
T1 construct: expressed in transfected cells; membranes prepared from them

[1] = single rising oral dose Phase 1 pharmacokinetics; assay type: in vivo, human
Experimental: The steady state AUC geometric mean accumulation ratios were ˜2 in young male subjects and ˜2.8 in elderly subjects (male and female).
All subjects were healthy adults. […] Systemic exposures were greater than dose proportional up to 600 mg.
Although exposures were similar in middle-aged males when compared to young males, plasma concentrations were higher in elderly compared to middle-aged and young subjects. […] Furthermore, the steady state AUC geometric mean accumulation ratios were ˜2 in young males and ˜2.8 in the elderly.

[2] = multiple rising dose Phase 1 pharmacokinetics; assay type: in vivo, human
From the text: Although exposures were similar in middle-aged males when compared to young males, plasma concentrations were higher in elderly compared to middle-aged and young subjects.

[3] = PK in renal impairment, single dose 100 mg; assay type: in vivo, human; settings: for CL/F / Fe[urine] 48 hr / AUC0-inf: single 100 mg
From the text: The relationship between clearance and renal function was modeled using linear regression.

[4] = PK in moderate hepatic impairment, single dose 100 mg; assay type: in vivo, human; settings: single 100 mg, healthy matched control subjects
healthy subjects [5] = experiment: multiple-dose Phase 1 study: maximum MA4 heart rate; assay type: in vivo, human; settings: Day 14
Experimental: More intensive assessments of heart rate and blood pressure were performed in healthy volunteers in several Phase 1 studies. […] Doses ranged from 25 to 400 mg once daily for 7 to 28 days depending on the cohort. Least squares mean and 90% confidence intervals of maximum change from baseline in moving average of heart rate over 4 hours postdose (MA4 HR) are presented in Table 18.

[6] = test system: men and women with overactive bladder; experiment: Phase 3 study vibegron 75 mg vs placebo and tolterodine, 12 weeks, OAB: efficacy (Tables 21-25); assay type: in vivo, human
Experimental: Enrollment of patients included individuals with OAB Wet (those with UUI, the involuntary loss of urine accompanied by urgency) and OAB Dry (those without UUI). A total of 1,518 patients were randomized across 215 study sites into one of three groups for a 12-week treatment period.
The study consisted of a Screening Period (1 to 5 weeks), a single-blind Run-in Period (2 weeks), a randomized double-blind Treatment Period (12 weeks), and a Follow-up Period (4 weeks).
Tolterodine ER 4 mg was the active control. […] Between the Baseline and Week 12 Visits, patients had study assessments at Week 4 and Week 8.
For the analysis of the co-primary endpoints (change from baseline in average number of daily micturitions at Week 12 and change from baseline in average number of daily urge urinary incontinence episodes at Week 12, and placebo adjustment of each), a mixed model for repeated measure (MMRM) with restricted maximum likelihood estimation was used. This model corrects for dropout and accounts for the fact that measurements taken on the same patient over time tend to be correlated by using all available information on patients within the same covariate set to derive an estimate of the treatment effect for a dropout-free population. The analysis model for each efficacy endpoint includes terms for treatment, visit, OAB Type (Wet vs Dry), Sex (Female vs Male), Region (US vs Rest of World), baseline score, and interaction of visit by treatment.
Primary inferences were drawn from treatment differences for the changes from baseline derived from the MMRM models at Week 12. As part of secondary objectives, the treatment differences for each post baseline visit were also derived using the same MMRM model.
An unstructured covariance matrix was used to model the correlation among repeated measurements. The Kenward-Roger adjustment was used with restricted (or residual) maximum likelihood (REML) to make statistical inference. If the unstructured covariance model fails to converge with the default Newton-Raphson algorithm, the Fisher scoring algorithm or other appropriate methods can be used to provide initial values of the covariance parameters. In the rare event that none of the above methods yield convergence, a structured covariance would be used to model the correlation among repeated measurements.
The change from baseline efficacy endpoints was analyzed using the same MMRM model described for co-primary endpoints.
Analysis of the efficacy endpoints of proportion of patients with at least 75% reduction in the average number of daily UUI episodes at Week 12 and proportion of patients with 50% reduction in the average number of daily urgency episodes at Week 12 was analyzed using the Cochran-Mantel-Haenszel risk difference estimate. Missing Week 12 data was analyzed using multiple imputation. The estimated difference in the proportion of responders and 95% confidence interval for the difference was calculated using the Cochran-Mantel-Haenszel risk difference estimate stratified by OAB Type (Wet vs Dry) and Sex (Female vs Male), with weights proposed by Greenland and Robins.
The same statistical methods that were used to analyze the co-primary and secondary efficacy endpoints were used for the exploratory analyses. Exploratory responder analyses were analyzed using the same Cochran-Mantel-Haenszel model as described above for secondary endpoints.

[7] = test system: men and women with overactive bladder; experiment: Phase 3 study vibegron 75 mg: safety and tolerability; assay type: in vivo, human; settings: 75 mg QD, 12 weeks
Experimental: Safety analyses were conducted using the SAF and summarized by treatment group as treated. The treatment-emergent period is defined as the period of time from the first dose date of the double blinded Study Treatment through 28 days after the last dose of Study Treatment, or the date of initiation of another investigational agent or surgical intervention or rollover to the extension study, whichever occurs first. Safety was assessed through summaries of adverse events, the frequency of treatment discontinuations due to adverse events, and clinical laboratory evaluations.

healthy subjects [8] = settings: in vivo
healthy subjects [9] = test system: healthy subjects
From the text: Safety data from 16 Phase 1 studies, which include 15 completed Phase 1 studies and 1 study that was terminated early (this study was terminated for reasons unrelated to efficacy or safety) was collected.

[10] = healthy matched control subjects

T1 sequence (P08588 whole entry): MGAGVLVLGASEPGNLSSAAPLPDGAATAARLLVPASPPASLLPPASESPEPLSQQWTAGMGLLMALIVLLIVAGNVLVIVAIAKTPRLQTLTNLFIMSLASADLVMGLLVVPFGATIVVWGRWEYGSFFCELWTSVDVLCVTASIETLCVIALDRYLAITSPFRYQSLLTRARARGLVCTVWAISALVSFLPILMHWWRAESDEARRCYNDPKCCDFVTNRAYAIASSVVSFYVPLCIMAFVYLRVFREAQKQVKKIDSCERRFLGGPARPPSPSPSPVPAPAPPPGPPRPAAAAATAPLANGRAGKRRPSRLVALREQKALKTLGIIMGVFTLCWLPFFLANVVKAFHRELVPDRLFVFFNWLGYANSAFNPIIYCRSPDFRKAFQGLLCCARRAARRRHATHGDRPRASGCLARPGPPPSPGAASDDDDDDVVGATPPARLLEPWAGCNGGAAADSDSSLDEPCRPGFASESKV

Question: With `O=C(Nc1ccc(C[C@@H]2CC[C@H]([C@H](O)c3ccccc3)N2)cc1)[C@@H]1CCc2nccc(=O)n21` [Vibegron, (6S)—N-[4-[[(2S,5R)-5-[(R)-hydroxy(phenyl)methyl]pyrrolidin-2-yl]methyl]phenyl]-4-oxo-7,8-dihydro-6H-pyrrolo[1,2-a]pyrimidine-6-carboxamide] as the molecule, how does the “binding to β1-AR” value (β1-AR) read?
Answer: does not bind

Question: What about the “exposure increase, young Japanese vs non-Japanese males” value ([1]; single dose) of the same molecule?
Answer: < 2 fold

Question: And the “dose proportionality of mean Cmax and AUC” value ([1]; up to 400 mg)?
Answer: greater than dose-proportional

Question: And the “steady state Cmax, elderly compared to young males” value ([2]; 100 mg QD)?
Answer: ~1.3 fold

Question: And the “fe0-24hr, ss” value ([2]; 100 mg, elderly subjects)?
Answer: ~17%

Question: And the AUC0-24 ([2]; 200 mg multiple dose, day 14, healthy young males)?
Answer: 3200 ± 1120 ng·h/mL

Question: What about the “fe0-24hr, ss” value ([2]; 100 and 150 mg, young males) of the same molecule?
Answer: ~14%

Question: What about the “steady state exposure (AUC0-24) higher in elderly Japanese than elderly non-Japanese” value ([2]; Day 14) of the same molecule?
Answer: 35%

Question: What about the “Cmax increase in elderly Japanese compared to elderly non-Japanese” value ([2]; in vivo) of the same molecule?
Answer: 82%

Question: And the “higher Cmax in elderly and females than healthy young males” value ([2]; in vivo)?
Answer: 50-70%

Question: And the “steady state AUC, middle-aged females compared to middle-aged males” value ([2]; in vivo)?
Answer: ~1.5 fold

Question: What about the “steady state exposures higher in Japanese than non-Japanese young males” value ([2]; in vivo) of the same molecule?
Answer: ~30%

Question: And the “time to steady state” value ([2]; once daily dosing)?
Answer: ≤ 7 days

Question: What about the “exposure (AUC) higher in females compared with males” value ([2]; regardless of age) of the same molecule?
Answer: 50%

Question: What about the “mean increase in AUC, moderate renal impairment vs normal renal function” value ([3]; in vivo) of the same molecule?
Answer: 1.6 fold

Question: What about the “AUC0-inf higher compared to healthy matched controls” value ([3]; mild renal impairment) of the same molecule?
Answer: 49%

Question: And the “CLR reduced compared to healthy matched controls” value (“CLR reduced” for short) ([3]; mild renal impairment)?
Answer: 39%

Question: What about the “Cmax higher compared to healthy matched controls” value ([3]; mild renal impairment) of the same molecule?
Answer: 96%

Question: What about the “AUC0-inf higher compared to healthy matched controls” value ([3]; moderate renal impairment) of the same molecule?
Answer: 106%

Question: And the “CLR reduced” value ([3]; moderate renal impairment)?
Answer: 65%

Question: And the “Cmax higher compared to healthy matched controls” value ([3]; moderate renal impairment)?
Answer: 68%

Question: What about the “AUC0-inf higher compared to healthy matched controls” value ([3]; severe renal impairment) of the same molecule?
Answer: 83%

Question: And the “CLR reduced” value ([3]; severe renal impairment)?
Answer: 82%

Question: What about the “Cmax higher compared to healthy matched controls” value ([3]; severe renal impairment) of the same molecule?
Answer: 42%

Question: And the CL/F [3, 10]?
Answer: 64.9 L/h

Question: What about the “Fe[urine] 48 hr” value [3, 10] of the same molecule?
Answer: 7.9%

Question: What about the AUC0-inf ([3]; mild renal impairment) of the same molecule?
Answer: 2290 ng·h/mL

Question: And the CL/F ([3]; mild renal impairment)?
Answer: 43.6 L/h

Question: What about the “Fe[urine] 48 hr” value ([3]; mild renal impairment) of the same molecule?
Answer: 8.5%

Question: What about the CL/F ([3]; moderate renal impairment) of the same molecule?
Answer: 31.5 L/h

Question: What about the “Fe[urine] 48 hr” value ([3]; moderate renal impairment) of the same molecule?
Answer: 5.5%

Question: What about the AUC0-inf ([3]; severe renal impairment) of the same molecule?
Answer: 2820 ng·h/mL

Question: What about the CL/F ([3]; severe renal impairment) of the same molecule?
Answer: 35.5 L/h

Question: What about the “Fe[urine] 48 hr” value ([3]; severe renal impairment) of the same molecule?
Answer: 2.1%

Question: And the “CL/F increase per one mL/min/1.73 m2 increase in eGFR” value ([3]; slope of linear regression)?
Answer: ~0.8%

Question: What about the “Apparent terminal t1/2” value [4] of the same molecule?
Answer: 92.5 (9.37%) hr

Question: And the “Maximum MA4 HR change from baseline, LS mean” value (from here on “Maximum MA4 HR change”) (healthy subjects [5]; 25 mg QD)?
Answer: 1.47 bpm

Question: What about the “Maximum MA4 HR, difference from placebo” value (healthy subjects [5]; 25 mg QD) of the same molecule?
Answer: −1.60 bpm

Question: What about the “Maximum MA4 HR change” value (healthy subjects [5]; 50 mg QD) of the same molecule?
Answer: 1.50 bpm

Question: What about the “Maximum MA4 HR, difference from placebo” value (healthy subjects [5]; 50 mg QD) of the same molecule?
Answer: −1.57 bpm

Question: And the “Maximum MA4 HR change” value (healthy subjects [5]; 100 mg QD)?
Answer: 3.28 bpm

Question: And the “Maximum MA4 HR change” value (healthy subjects [5]; 150 mg QD)?
Answer: 3.17 bpm

Question: And the “Maximum MA4 HR, difference from placebo” value (healthy subjects [5]; 150 mg QD)?
Answer: 0.10 bpm

Question: What about the “Maximum MA4 HR change” value (healthy subjects [5]; 200 mg QD) of the same molecule?
Answer: 5.67 bpm

Question: What about the “Maximum MA4 HR, difference from placebo” value (healthy subjects [5]; 200 mg QD) of the same molecule?
Answer: 2.60 bpm

Question: And the “Maximum MA4 HR change” value (healthy subjects [5]; 300 mg QD)?
Answer: 9.06 bpm

Question: And the “Maximum MA4 HR, difference from placebo” value (healthy subjects [5]; 300 mg QD)?
Answer: 5.98 bpm

Question: And the “Maximum MA4 HR change” value (healthy subjects [5]; 400 mg QD)?
Answer: 10.33 bpm

Question: And the “Maximum MA4 HR, difference from placebo” value (healthy subjects [5]; 400 mg QD)?
Answer: 7.26 bpm

Question: What about the “total incontinence episodes vs baseline” value ([6]; 75 mg QD, 12 weeks) of the same molecule?
Answer: reduced by half

Question: What about the “Micturitions: Week 12 CFB Mean” value ([6]; Males with BPH, descriptive statistics) of the same molecule?
Answer: −1.50

Question: What about the “OAB-q Coping Score, Week 12 LS Mean Change from Baseline (Placebo-Adjusted)” value ([6]; Week 12, key secondary endpoint, once-daily vibegron 75 mg or tolterodine) of the same molecule?
Answer: 3.6

Question: What about the tolerability [7] of the same molecule?
Answer: favorable

Question: What about the “thorough QT study finding” value (healthy subjects [8]) of the same molecule?
Answer: no clinically meaningful effect on QTc or blood pressure

Question: What about the “treatment-emergent SAEs or deaths” value (healthy subjects [9]; Phase 1 program) of the same molecule?
Answer: no treatment-emergent serious adverse events (SAEs) or deaths reported

Question: And the “tolerability across the Phase 1 program” value (healthy subjects [9]; single 2 to 600 mg, multiple 25 to 400 mg up to 28 days)?
Answer: generally well tolerated

From patent US12357636B2 (Urovant Sciences GmbH, priority 2018, dated 2025)
